Laboratory results taken from ChEMBL document CHEMBL1201862, “PubChem BioAssay data set” (2004).
Active and inactive are the calls of the source.

Key:
Paired box protein Pax-8 = Paired box protein Pax-8 (Homo sapiens, UniProt Q06710); assay: inhibitors of PAX8-driven TPO luciferase reporter, dose response, RMG-I cells, cherry-pick (AID 687027); type: functional, cell-based;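 note: luciferase reporter driven by Pax8 target thyroperoxidase promoter measured by SteadyGlo luminescence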
[1] = inhibitors of CMV-promoter luciferase reporter, dose response, counter-screen for Pax8 inhibitor project, cell-based, HEK293, luminescence, dry powder (AID 743020); type: functional
[2] = molecular target: Disintegrin and metalloproteinase domain-containing protein 17 (Homo sapiens, UniProt P78536); assay: exosite inhibitors of ADAM17, dose response, biochemical (AID 743260)
[3] = NIH-3T3 fibroblast cytotoxicity, dose response, cytotoxicity control, cell-based, fluorescence, Alamar Blue, secondary assay (AID 2327); type: functional;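 note: NIH-3T3 mouse fibroblasts cultured with fluconazole at 8 µg/mL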
BJ [4] = assay: cytotoxicity toward BJ-TERT fibroblasts, dose response, cell-based, RAS-independent, luminescence (AID 1933); type: functional; details: Homo sapiens
BJ [5] = assay: cells; type: functional, cell-based; details: Homo sapiens
[6] = C. albicans growth with fluconazole, confirmation, fluorescence, retest (AID 2467); type: functional, cell-based
BJ [7] = assay: cytotoxicity toward BJ-TERT-LT-ST fibroblasts, dose response, cell-based, RAS-independent, luminescence (AID 1935); type: functional; details: Homo sapiens;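 note: BJ fibroblasts immortalized with TERT plus LT and ST oncogenes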
[8] = cytotoxicity toward DRD oncogenic fibroblasts, dose response, cell-based, non-viral oncogenic, luminescence (AID 1934); type: functional; details: Homo sapiens
Nonstructural protein 1 = Nonstructural protein 1 (Influenza A virus, UniProt Q194T2); type: functional, Influenza A virus (A/California/07/2009(H1N1))
[9] = HeLa cell cytotoxicity, dose response, cytotoxicity control for MgcRacGAP inhibitor project (AID 624300); type: functional
[10] = molecular target: T1, Rac GTPase-activating protein 1 (Homo sapiens, UniProt Q9H0H5); assay: MgcRacGAP GTPase-activating activity inhibitors, confirmation, biochemical, ADP Hunter fluorescence, primary and confirmatory (AID 624330); type: functional
T1 sequence (Q9H0H5 whole entry): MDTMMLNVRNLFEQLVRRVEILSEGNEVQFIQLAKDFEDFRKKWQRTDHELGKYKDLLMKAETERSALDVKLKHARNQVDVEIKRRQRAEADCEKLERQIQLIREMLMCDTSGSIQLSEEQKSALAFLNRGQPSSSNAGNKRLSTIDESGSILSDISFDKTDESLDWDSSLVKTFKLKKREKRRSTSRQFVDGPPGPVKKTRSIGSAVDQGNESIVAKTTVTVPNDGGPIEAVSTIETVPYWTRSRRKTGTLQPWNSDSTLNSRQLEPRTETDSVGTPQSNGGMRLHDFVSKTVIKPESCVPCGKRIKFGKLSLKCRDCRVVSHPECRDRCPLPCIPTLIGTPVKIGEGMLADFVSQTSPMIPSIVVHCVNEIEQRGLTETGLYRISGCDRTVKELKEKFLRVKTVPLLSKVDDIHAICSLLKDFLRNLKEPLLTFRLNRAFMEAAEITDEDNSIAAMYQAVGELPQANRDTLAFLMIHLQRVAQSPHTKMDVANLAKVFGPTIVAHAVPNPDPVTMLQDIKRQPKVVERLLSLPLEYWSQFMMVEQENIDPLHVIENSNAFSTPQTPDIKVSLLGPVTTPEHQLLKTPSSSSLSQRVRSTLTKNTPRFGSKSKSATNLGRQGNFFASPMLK

[11] = molecular target: T2, Histone-lysine N-methyltransferase NSD2 (Homo sapiens, UniProt O96028); type: biochemical
T2 sequence (O96028 whole entry): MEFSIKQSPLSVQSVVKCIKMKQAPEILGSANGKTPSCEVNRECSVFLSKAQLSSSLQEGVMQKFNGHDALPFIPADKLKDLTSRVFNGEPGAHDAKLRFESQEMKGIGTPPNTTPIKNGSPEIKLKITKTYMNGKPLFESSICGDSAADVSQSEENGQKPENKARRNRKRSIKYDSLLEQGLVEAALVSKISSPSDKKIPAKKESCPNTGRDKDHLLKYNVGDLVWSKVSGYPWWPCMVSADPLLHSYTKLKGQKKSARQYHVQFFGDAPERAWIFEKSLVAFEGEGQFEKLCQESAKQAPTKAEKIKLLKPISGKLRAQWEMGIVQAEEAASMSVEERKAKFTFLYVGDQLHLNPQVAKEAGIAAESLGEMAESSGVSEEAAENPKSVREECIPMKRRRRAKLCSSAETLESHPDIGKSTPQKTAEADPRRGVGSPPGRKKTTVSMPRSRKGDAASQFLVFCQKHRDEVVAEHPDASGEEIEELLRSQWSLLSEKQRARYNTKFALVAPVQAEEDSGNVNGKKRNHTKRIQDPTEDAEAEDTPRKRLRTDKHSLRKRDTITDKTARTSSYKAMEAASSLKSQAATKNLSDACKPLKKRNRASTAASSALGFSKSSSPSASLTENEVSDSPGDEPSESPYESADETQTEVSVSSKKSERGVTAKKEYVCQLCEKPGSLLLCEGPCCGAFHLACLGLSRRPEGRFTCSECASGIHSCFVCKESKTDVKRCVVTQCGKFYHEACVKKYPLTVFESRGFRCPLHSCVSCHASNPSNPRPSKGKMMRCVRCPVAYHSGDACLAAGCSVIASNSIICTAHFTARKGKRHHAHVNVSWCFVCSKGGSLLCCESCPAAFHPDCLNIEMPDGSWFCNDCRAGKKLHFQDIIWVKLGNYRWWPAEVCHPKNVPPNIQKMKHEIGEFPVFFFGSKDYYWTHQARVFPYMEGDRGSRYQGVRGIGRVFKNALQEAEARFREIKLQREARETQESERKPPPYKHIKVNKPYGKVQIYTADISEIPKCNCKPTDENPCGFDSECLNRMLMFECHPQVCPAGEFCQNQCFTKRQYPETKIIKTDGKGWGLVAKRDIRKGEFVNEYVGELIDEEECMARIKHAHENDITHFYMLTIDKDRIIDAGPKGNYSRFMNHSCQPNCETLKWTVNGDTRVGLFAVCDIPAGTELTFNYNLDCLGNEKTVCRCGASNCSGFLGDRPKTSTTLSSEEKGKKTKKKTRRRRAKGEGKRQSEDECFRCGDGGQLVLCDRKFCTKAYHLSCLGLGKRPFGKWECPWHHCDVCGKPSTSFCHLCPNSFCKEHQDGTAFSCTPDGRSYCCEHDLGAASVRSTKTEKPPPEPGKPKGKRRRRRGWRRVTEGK

[12] = human group III sPLA2 inhibitors, dose response, biochemical, QFRET, IC50 (AID 743457);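 note: green fluorescence rise as the enzyme cleaves BODIPY PC-A2 in liposomes; potency for inhibition of the enzyme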
[13] = Fluorescence-based cell-based high throughput dose response assay for inhibitors of the interaction of nucleotide-binding oligomerization domain containing 2 (NOD2) and the receptor-interacting serine-threonine kinase 2 (RIPK2).; type: functional; details: Homo sapiens
[14] = HEK293T cell cytotoxicity, dose response, cytotoxicity control for HIV Vif inhibitor project, cherry-picks (AID 652208); type: functional, cell-based
[15] = THP-1 cell cytotoxicity, dose response, cytotoxicity control for Vif-APOBEC3G degradation inhibitor project, THP-1 cells (AID 1117359); type: functional; details: Human immunodeficiency virus 1, THP-1
[16] = HeLa cell cytotoxicity, dose response, cytotoxicity control, 24 h, plate reader, dry powder (AID 686928); type: functional, cell-based
Fatty acid synthase = Fatty acid synthase (Homo sapiens, UniProt P49327); assay: FAS thioesterase domain inhibitors, SAR follow-up, biochemical, endpoint fluorescence intensity, powder samples (AID 652164); type: functional
Protein Wnt-3a = Protein Wnt-3a (Mus musculus, UniProt P27467); assay: SAR analysis of small molecule antagonists of Gli-SUFU in a Wnt3a luminescent reporter assay.; type: functional
[17] = A549 cell cytotoxicity, dose response, cytotoxicity control, plate reader, cherry-pick, antagonist series (AID 743412); type: functional, cell-based
[18] = HepG2 cell cytotoxicity, dose response, cytotoxicity control, plate reader, cherry-pick, antagonist series (AID 743416); type: functional, cell-based
[19] = LGR2 antagonists, dose response, cell-based, HEK293, CRE-luciferase reporter, cherry pick (AID 743342); type: functional
[20] = MC4R antagonists, dose response, counter-screen for LGR2 antagonist project, cell-based, plate reader, cherry pick (AID 743444); type: functional;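 note: transfected HEK 293 cells stimulated with alpha-MSH peptide; potency of inhibitors of the alpha-MSH evoked signal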
[21] = HEK293 cell cytotoxicity, dose response, cytotoxicity control, plate reader, cherry-picked samples (AID 743446); type: functional, cell-based
[22] = HepG2 cell cytotoxicity, dose response, cytotoxicity control, cherry-picks, set 5 (AID 1053118); type: functional, cell-based
[23] = HEK293 cell cytotoxicity, dose response, cytotoxicity control, cherry-picks, set 5 (AID 1053117); type: functional, cell-based
[24] = A549 cell cytotoxicity, dose response, cytotoxicity control, cherry-picks, 26 µM top dose (AID 1053119); type: functional, cell-based
[25] = Cytotoxicity screening for potential Inhibitors of Bacterial Capsule Biogenesis (4).; type: functional
[26] = TRPM1 promoter luciferase reporter signal decrease, dose response, MITF inhibitor project, cell-based, SK-MEL-5, dry powder, set 9 (AID 651588); type: functional
[27] = A375 melanoma cell viability loss, dose response, counter-screen for MITF inhibitor project, CellTiter-Glo luminescence, dry powder, set 4 (AID 624364); type: functional, cell-based; details: A-375;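 note: A375 melanoma cells are MITF independent so this is a counter screen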
[28] = A375 melanoma cell cytotoxicity, dose response, counter-screen for MITF inhibitor project, CellTiter-Glo luminescence, dry powder, set 7 (AID 624490); type: functional, cell-based; details: A-375
[29] = MITF Orthogonal Assay: MALME3 CTG Assay Measured in Cell-Based System Using Plate Reader - 2084-04_Inhibitor_Dose_DryPowder_Activity_Set6.; type: functional; details: MALME-3
[30] = SK-MEL-5 parental cell viability reduction, dose response, orthogonal assay for MITF inhibitor project, CellTiter-Glo luminescence, dry powder, set 8 (AID 651586); type: functional, cell-based
[31] = MALME3 melanoma cell viability reduction, dose response, orthogonal assay for MITF inhibitor project, CellTiter-Glo luminescence, dry powder, set 5 (AID 651584); type: functional, cell-based; details: MALME-3
[32] = SK-MEL-5 parental line viability, dose response, MITF inhibitor project, cell-based, CellTiter-Glo, dry powder, set 6 (AID 624429); type: functional
[33] = MITF Orthogonal Assay: SK-MEL-5 CTG Assay Measured in Cell-Based System Using Plate Reader - 2084-02_Inhibitor_Dose_DryPowder_Activity_Set5.; type: functional
[34] = A375 melanoma cell cytotoxicity, dose response, counter-screen for MITF inhibitor project, CellTiter-Glo luminescence, dry powder, set 6 (AID 624488); type: functional, cell-based; details: A-375
[35] = A375 melanoma cell viability loss, dose response, counter-screen for MITF modulator project, CellTiter-Glo luminescence, dry powder, set 9 (AID 651591); type: functional, cell-based; details: A-375
[36] = MITF Measured in Cell-Based System Using Plate Reader - 2084-01_Inhibitor_Dose_DryPowder_Activity_Set6.; type: functional
[37] = A375 melanoma cell cytotoxicity, dose response, counter-screen for MITF inhibitor project, CellTiter-Glo luminescence, dry powder, set 2 (AID 624489); type: functional, cell-based; details: A-375;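 note: actives are compounds lowering A375 viability meaning general cytotoxicity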
[38] = MITF Measured in Cell-Based System Using Plate Reader - 2084-01_Inhibitor_Dose_DryPowder_Activity_Set7.; type: functional

Sequence of Paired box protein Pax-8 (Q06710 whole entry): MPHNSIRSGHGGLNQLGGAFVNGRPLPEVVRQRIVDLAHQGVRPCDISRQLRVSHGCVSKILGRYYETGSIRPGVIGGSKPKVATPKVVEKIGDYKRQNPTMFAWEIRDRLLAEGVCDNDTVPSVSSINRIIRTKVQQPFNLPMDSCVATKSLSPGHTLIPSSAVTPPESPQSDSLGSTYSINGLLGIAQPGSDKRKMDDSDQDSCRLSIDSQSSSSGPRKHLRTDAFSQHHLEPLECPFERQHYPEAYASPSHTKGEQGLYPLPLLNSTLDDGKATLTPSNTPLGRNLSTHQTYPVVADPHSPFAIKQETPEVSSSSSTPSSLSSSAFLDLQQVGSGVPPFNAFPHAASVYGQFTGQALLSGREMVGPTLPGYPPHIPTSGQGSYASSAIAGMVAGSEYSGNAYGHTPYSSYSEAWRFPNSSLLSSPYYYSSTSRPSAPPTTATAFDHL
Sequence of Fatty acid synthase (P49327 whole entry, the tested form may be a part): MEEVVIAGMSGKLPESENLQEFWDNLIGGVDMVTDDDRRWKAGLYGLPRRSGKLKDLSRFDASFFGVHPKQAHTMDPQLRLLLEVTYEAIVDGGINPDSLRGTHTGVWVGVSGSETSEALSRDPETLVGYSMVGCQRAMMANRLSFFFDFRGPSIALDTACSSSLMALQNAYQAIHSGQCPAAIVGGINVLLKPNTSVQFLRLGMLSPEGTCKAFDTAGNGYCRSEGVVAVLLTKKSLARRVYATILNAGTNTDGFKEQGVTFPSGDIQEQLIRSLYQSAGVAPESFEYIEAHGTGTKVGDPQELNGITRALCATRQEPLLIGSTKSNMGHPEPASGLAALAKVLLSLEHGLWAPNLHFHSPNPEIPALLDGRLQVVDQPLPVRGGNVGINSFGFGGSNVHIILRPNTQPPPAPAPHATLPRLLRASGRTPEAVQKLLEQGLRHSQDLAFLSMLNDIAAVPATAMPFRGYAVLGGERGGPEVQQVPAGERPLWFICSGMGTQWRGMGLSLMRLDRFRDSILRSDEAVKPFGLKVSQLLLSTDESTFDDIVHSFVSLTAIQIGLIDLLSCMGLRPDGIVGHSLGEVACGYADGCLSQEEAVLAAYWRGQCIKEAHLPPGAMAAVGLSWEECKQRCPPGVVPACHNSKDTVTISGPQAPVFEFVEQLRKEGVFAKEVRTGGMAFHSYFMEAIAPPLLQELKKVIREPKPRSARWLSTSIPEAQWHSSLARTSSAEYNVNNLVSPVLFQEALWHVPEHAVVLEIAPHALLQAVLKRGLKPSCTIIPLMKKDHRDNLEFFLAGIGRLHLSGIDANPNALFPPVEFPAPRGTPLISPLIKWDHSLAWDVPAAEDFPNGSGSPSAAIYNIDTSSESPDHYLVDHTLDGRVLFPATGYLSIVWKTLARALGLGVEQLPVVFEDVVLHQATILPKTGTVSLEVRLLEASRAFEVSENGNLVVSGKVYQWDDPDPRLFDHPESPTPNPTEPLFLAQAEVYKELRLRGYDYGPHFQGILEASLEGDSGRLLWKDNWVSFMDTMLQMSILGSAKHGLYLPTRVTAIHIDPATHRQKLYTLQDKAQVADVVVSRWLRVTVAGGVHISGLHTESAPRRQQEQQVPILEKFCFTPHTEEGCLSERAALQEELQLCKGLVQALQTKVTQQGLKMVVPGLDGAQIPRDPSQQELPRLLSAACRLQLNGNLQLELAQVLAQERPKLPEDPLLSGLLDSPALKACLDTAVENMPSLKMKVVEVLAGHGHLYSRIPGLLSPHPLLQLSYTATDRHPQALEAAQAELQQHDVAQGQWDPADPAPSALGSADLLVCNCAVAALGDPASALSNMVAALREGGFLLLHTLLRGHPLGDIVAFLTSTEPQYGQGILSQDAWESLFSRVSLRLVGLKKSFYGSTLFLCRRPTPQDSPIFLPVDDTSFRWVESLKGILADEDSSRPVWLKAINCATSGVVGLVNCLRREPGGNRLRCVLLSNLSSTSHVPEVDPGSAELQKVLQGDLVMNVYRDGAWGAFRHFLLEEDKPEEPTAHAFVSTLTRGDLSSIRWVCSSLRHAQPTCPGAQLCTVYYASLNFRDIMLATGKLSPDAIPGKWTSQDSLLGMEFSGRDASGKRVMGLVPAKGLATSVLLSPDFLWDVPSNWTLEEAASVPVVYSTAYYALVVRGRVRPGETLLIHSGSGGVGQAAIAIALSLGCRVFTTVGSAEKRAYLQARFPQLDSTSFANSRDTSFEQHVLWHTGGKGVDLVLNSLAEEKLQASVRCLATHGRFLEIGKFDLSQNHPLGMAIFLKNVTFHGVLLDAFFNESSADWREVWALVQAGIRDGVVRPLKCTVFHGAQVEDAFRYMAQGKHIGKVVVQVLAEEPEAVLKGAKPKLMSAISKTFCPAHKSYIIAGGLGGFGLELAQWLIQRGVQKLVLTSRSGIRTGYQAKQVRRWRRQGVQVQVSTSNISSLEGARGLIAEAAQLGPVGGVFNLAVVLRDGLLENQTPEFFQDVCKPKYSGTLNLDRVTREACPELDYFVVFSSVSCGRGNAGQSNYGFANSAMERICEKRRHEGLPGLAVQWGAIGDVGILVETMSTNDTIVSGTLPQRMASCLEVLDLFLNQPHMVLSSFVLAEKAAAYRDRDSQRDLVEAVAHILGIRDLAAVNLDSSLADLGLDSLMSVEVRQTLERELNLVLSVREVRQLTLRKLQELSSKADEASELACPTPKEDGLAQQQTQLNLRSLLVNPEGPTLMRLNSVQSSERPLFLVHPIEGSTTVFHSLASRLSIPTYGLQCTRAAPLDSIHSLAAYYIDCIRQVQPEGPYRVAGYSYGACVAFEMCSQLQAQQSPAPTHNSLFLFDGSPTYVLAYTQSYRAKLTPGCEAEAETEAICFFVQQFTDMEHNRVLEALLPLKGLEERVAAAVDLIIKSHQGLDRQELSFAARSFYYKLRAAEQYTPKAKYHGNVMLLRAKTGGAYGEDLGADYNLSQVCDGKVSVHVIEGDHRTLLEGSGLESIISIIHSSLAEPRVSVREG
Sequence of Nonstructural protein 1 (Q194T2 whole entry): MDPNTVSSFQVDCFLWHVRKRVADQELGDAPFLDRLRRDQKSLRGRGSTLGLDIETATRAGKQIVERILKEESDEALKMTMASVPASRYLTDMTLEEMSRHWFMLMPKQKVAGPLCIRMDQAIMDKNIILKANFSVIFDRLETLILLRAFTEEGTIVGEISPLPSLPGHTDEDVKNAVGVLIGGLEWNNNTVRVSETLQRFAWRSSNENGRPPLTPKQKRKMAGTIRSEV
Sequence of Disintegrin and metalloproteinase domain-containing protein 17 (P78536 whole entry, the tested form may be a part): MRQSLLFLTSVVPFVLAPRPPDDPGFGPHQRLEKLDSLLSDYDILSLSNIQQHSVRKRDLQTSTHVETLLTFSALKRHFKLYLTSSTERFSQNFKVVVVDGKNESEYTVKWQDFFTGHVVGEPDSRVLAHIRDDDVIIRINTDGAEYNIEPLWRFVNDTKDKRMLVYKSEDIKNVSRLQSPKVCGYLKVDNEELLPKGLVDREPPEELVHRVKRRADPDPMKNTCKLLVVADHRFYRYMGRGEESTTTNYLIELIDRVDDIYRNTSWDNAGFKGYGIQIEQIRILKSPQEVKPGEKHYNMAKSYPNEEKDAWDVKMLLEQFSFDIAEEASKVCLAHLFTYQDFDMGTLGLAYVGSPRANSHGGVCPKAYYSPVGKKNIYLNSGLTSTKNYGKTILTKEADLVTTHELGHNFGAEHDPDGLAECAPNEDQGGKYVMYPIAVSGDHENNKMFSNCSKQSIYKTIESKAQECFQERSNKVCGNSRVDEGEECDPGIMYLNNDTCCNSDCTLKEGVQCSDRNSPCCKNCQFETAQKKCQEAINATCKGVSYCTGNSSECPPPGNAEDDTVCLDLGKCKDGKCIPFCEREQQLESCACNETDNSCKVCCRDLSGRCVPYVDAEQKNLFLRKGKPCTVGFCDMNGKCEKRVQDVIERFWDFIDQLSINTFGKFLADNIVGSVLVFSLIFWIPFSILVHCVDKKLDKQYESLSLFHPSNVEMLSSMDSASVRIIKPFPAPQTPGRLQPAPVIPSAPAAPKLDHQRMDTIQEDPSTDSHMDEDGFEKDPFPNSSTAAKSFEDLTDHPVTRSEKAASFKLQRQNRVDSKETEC
Sequence of Protein Wnt-3a (P27467 whole entry): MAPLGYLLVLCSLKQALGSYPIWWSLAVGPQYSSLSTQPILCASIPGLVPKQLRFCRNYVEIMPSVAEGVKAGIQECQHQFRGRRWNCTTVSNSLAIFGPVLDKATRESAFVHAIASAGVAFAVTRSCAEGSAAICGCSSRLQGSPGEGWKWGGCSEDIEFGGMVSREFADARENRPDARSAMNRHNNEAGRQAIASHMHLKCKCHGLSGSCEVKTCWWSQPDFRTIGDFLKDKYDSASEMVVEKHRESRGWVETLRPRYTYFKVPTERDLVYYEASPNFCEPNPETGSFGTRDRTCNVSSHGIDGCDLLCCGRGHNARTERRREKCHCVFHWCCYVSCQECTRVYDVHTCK

CC(=O)c1cc(NC(=O)c2cccc(C(F)(F)F)c2)c(=O)oc1C
AC50 (Paired box protein Pax-8): 15.8 µM (active) | AC50 [1]: < 9 µM (active)

CCOc1ccc(NC(=O)CC2SC(=O)N(c3ccccc3)C2=O)cc1 (stereo not drawn)
IC50 [2]: 5.73 µM (active)

CN(C)c1ccc(/C=C/C=C/c2sc3ccccc3[n+]2C)cc1.[O-][Cl+3]([O-])([O-])[O-]
EC50 [3]: > 150 µM (inactive) | EC50 (BJ [4]): 2.83 µM (inconclusive) | EC50 (BJ [5]): 4.81 µM (active) | EC50 [6]: 0.194 µM (active) | EC50 (BJ [7]): 29.2 µM (active) | EC50 [8]: 4.85 µM (active) | IC50 (Nonstructural protein 1): 15 µM (active) | CC50 [9]: 64 µM (active) | IC50 [10]: 62.6 µM (active) | AC50 [11]: 15.8 µM (active) | IC50 [12]: 41.6 µM (inactive)

C=CC(=O)N1C/C(=C/c2ccc(F)cc2)C(=O)/C(=C\c2ccc(F)cc2)C1
IC50 [13]: 3.71 µM (active) | AC50 [14]: 1.4 µM (active) | AC50 (Paired box protein Pax-8): 2.36 µM (active) | CC50 [15]: 0.57 µM (active)

CC(C)c1ccc2cc3c(NC(=O)c4ccco4)nn(C)c3nc2c1
AC50 [16]: 91.9 µM (active)

O=C(Nc1nc(-c2ccc(S(=O)(=O)N3CCOCC3)cc2)cs1)C1CCCCC1
IC50 (Fatty acid synthase): > 80 µM (inactive)

O=C(Nc1cc(N2CCCCCC2)ncn1)c1ccccc1
IC50 (Protein Wnt-3a): > 21.8 µM (inactive)

C[C@H](CO)N1C[C@H](C)[C@H](CN(C)C(=O)Nc2ccc(F)cc2)OCCCC[C@H](C)Oc2ccc(NC(=O)Nc3ccccc3)cc2C1=O
AC50 [17]: 37 µM (active) | AC50 [18]: 35.2 µM (active) | AC50 [19]: 6.77 µM (active) | AC50 [20]: 44.4 µM (active) | AC50 [21]: 40.6 µM (active)

CO[C@@H]1CN(C)C(=O)c2ccc(NC(=O)c3ccc(-c4ccccc4)cc3)cc2OC[C@H](C)NC[C@H]1C
AC50 [22]: 11.3 µM (active) | AC50 [23]: 14 µM (active) | AC50 [24]: 13.6 µM (active)

COc1cc(NC(=O)c2ccc3nc(C)sc3c2)ccn1
CC50 [25]: > 300 µM (inactive)

O=C(NC1=C(Cl)C(=O)c2ccccc2C1=O)c1ccccc1
AC50 [26]: 1.95 µM (active) | AC50 [27]: 45.9 µM (active) | AC50 [28]: 23.1 µM (active) | AC50 [29]: 7.33 µM (active) | AC50 [30]: 3.94 µM (active) | AC50 [31]: 7.33 µM (active) | AC50 [32]: 9.85 µM (active) | AC50 [33]: 13.5 µM (active) | AC50 [34]: 16.5 µM (active) | AC50 [35]: 28.7 µM (active) | AC50 [36]: 0.459 µM (active) | AC50 [37]: 22.8 µM (active) | AC50 [38]: 0.913 µM (active)
